Measurements as given in article PMC4742142, “Identification of novel, in vivo active Chk1 inhibitors utilizing structure guided drug design” (Oncotarget, 2015).
Entries after “also recorded” stand apart in the source; their conditions may differ.

What was measured:
[1] = Plasma pharmacokinetics, IV bolus; assay type: in vivo; details: 10 mg/kg IV; for Vd: read-out: Vss
Protocol: (§1) Dosing of animals and collection of samples was conducted by Quotient Bioresearch (Rushden) Ltd, UK. V158411 was administered by intravenous (IV) bolus injection to female Balb/C mice, male Sprague-Dawley rats or male beagle dogs. Plasma samples were prepared by protein precipitation with acetonitrile containing internal standard (IS; dextromethorphan, 0.5 μg/mL); the analysis plate was centrifuged at 3,000 rpm for 10 minutes at 4°C. […] The ratios of analyte against IS peak areas were calculated, and concentrations derived from calibration lines generated by Quanlynx (Waters Ltd.).
(§2) Pharmacokinetic parameters were calculated using the software package WinNonLin (Pharsight Corp.). Data was analyzed using noncompartmental analysis and fitted using plasma concentration versus time curves.

pH2AX (S139) = test: pH2AX ELISA in HT29 cells with gemcitabine; assay type: cell-based; details: Homo sapiens, HT-29, 50 nM gemcitabine, 24 hours, read-out: Gem pH2AX (S139) EC50
Protocol: 1 × 10^4 HT29 cells were seeded per well of a 96 well plate and treated with a combination of 50 nM gemcitabine plus increasing concentrations of V158411 for 24 hours. Following fixation with methanol, pH2AX was detected with a mouse monoclonal antibody (JBW301, Millipore) and a europium-labeled anti-mouse secondary antibody.

[2] = Plasma and tumor pharmacokinetics in HT29 tumor bearing mice; assay type: in vivo; details: mouse, HT29 tumor bearing mice, 30 mg/kg IV
Protocol: as §1, §2

panel of 386 kinases = test: Wide panel binding assay, whole panel; details: at pharmacologically relevant doses
Protocol: Selectivity against the cell cycle kinase CDK1 is considered critical for the pharmacological activity of Chk1 inhibitors as inhibiting it would prevent the G2 checkpoint abrogation and entry into mitosis; critical for the potentiation of cytotoxic DNA damage. Against a panel of 386 kinases in a wide panel binding assay, V158411 inhibited the activity of one kinase (Chk1) in the range 99-100%, three kinases 90-99% and 19 kinases 65-90% at 50 nM (Supplementary Table 1).

Chk1 [3] = target: T1, Chk1 (Homo sapiens, UniProt O14757); test: Etoposide induced Chk1 autophosphorylation (pS296) in HT29 cells, immunoblotting; assay type: cell-based
T1 sequence (O14757 1-476): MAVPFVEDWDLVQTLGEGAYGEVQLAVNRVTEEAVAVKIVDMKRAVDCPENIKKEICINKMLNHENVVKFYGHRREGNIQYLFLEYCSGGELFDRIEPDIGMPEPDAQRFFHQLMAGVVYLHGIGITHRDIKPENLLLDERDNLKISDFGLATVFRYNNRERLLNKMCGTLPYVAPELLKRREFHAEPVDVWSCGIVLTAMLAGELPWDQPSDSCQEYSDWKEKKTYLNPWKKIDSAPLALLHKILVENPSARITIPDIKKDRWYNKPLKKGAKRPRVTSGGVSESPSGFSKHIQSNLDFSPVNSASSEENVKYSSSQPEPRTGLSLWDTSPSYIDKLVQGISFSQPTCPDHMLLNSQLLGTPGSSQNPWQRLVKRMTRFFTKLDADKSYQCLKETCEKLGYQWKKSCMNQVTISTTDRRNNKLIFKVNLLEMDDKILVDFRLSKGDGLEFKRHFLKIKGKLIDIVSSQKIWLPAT
Protocol: (§3) Figure 3 Effect of V158411 on etoposide, gemcitabine and camptothecin induced DNA damage checkpoint and cell cycle proteins A. HT29 cells were exposed to increasing concentrations of V158411 for 1 hour followed by 25 μM etoposide for a further 5 hours. Auto-phosphorylation of Chk1 and Chk2 was determined by immunoblotting. B. HT29 cells were treated with gemcitabine (25 nM) or camptothecin (50 nM) for 16 hours followed by increasing doses of V158411 for a further 24 hours. C. HT29 cells were treated with 500 nM V158411 for 1 hour, media removed and replaced with drug free. Cells were harvested at the indicated time points post the removal of V158411. D. HT29 cells were treated with 0 or 100 nM camptothecin for 16 hours followed by V158411 for 2 - 24 hours. After the indicated time, media was removed and replaced with drug free media. All cells were harvested 24 hours after the initial addition of V158411. Protein expression was characterized by immunoblotting as described in materials and methods.
Anti-pHistone H3 (S10) was obtained from Millipore; pCdc2 (Y15), pCdc25C (S216), Chk1, pChk1 (S317), pChk2 (S516), Cyclin B1, pH2AX (S139), GAPDH and Actin from Cell Signaling Technologies and pChk1 (S296) from Abcam. Treated and untreated cells were washed once with PBS and lysed in RIPA buffer containing protease and phosphatase inhibitor cocktail (Roche). Protein concentration was determined using BCA kit (Pierce). Equal amounts of lysate were separated by SDS-PAGE and western blot analysis conducted using the antibodies indicated above.

Chk1 [4] = target: T1, Chk1; test: Western blotting of pChk1 (S296) in HT29 cells (gemcitabine or camptothecin; washout); assay type: cell-based; details: 500 nM for 1 hour then drug free media
Protocol: as §3
Anti-pHistone H3 (S10) was obtained from Millipore; pCdc2 (Y15), pCdc25C (S216), Chk1, pChk1 (S317), pChk2 (S516), Cyclin B1, pH2AX (S139), GAPDH and Actin from Cell Signaling Technologies and pChk1 (S296) from Abcam. […] Protein concentration was determined using BCA kit (Pierce). […]

[5] = Tolerability (MTD) in female nu/nu mice; assay type: in vivo
Description: Animals were weighed daily for the first five days then twice weekly thereafter for the duration of the study. The mice were observed frequently for overt signs of any adverse, treatment-related side effects, and clinical signs of toxicity recorded. Toxicity greater than a group mean body-weight loss of more than 20% or 1 in 10 treatment-related deaths was considered to be the maximum tolerated dose.

CN(C)CC(C)(C)COc1ccc2[nH]c(-c3cc(NC(=O)c4cnn(Cc5ccccc5)c4)c[nH]c3=O)cc2c1 [V158411]
AUC(0-t) ([1]; female, Balb/C, mouse): 7100 ng·h/mL | clearance ([1]; female, Balb/C, mouse): 20 mL/min/kg | half-life ([1]; female, Balb/C, mouse): 2.9 h | Vd ([1]; female, Balb/C, mouse): 3.3 L/kg | AUC(0-t) ([1]; male, Sprague-Dawley, rat): 6910 ng·h/mL | clearance ([1]; male, Sprague-Dawley, rat): 23.2 mL/min/kg | half-life ([1]; male, Sprague-Dawley, rat): 3.3 h | Vd ([1]; male, Sprague-Dawley, rat): 2.4 L/kg | AUC(0-t) ([1]; male, beagle, dog): 16000 ng·h/mL | clearance ([1]; male, beagle, dog): 10.6 mL/min/kg | half-life ([1]; male, beagle, dog): 3.2 h | Vd ([1]; male, beagle, dog): 1.2 L/kg | EC50 (pH2AX (S139)): 0.051 µM | clearance ([2]; plasma): 24 mL/min/kg | half-life ([2]; plasma, read-out: half-life (plasma) (converted)): 4.1 h | Vd ([2]; plasma, read-out: volume of distribution): 2.5 L/kg | half-life ([2]; read-out: elimination half-life in the tumor (converted)): 22 h | Kp ([2]; tumor versus plasma, read-out: tissue/plasma AUC0-24h ratio): 4.7 | selectivity for Chk1 over the majority of the kinases in the panel (panel of 386 kinases): > 100 fold | IC50 for Chk1 autophosphorylation and EC50 for H2AX phosphorylation lower than single agent GI50 (Chk1 [3]): around 10 fold | IC50 (Chk1 [3]; 1 hour compound then 25 μM etoposide 5 hours): 0.048 µM | cellular selectivity for Chk1 versus Chk2 (Chk1 [3]; etoposide): 19 fold | duration of Chk1 inhibition (pChk1 S296) after removal of compound from the culture media (Chk1 [4]): at least 24 hours | toxicity / maximum tolerated dose ([5]; IV bolus once or twice weekly, doses up to 100 mg/kg): minimal toxicity at doses up to 100 mg/kg; also recorded: the maximum tolerated dose of V158411 has yet to be found | effect on irinotecan toxicity ([5]; MTD irinotecan (100 mg/kg IP) plus V158411 up to 100 mg/kg IV 2 hours later, q7d 3 weeks): did not result in increased irinotecan toxicity; also recorded: did not affect the toxicity of irinotecan | acute, dose-related effects ([5]; single agent IV, self-limiting, minimized by slow infusion): flushing, tachycardia, exophthalmos | effect on body weight ([5]; single agent, 60 to 100 mg/kg IV q7d for 21 days, female nude mice): no effect on body weight loss
